How the values were obtained:
[1] = molecular target: human SOS1 (loading of human K-Ras^G12C-GDP with fluorescent GTP-analog) (Homo sapiens, UniProt Q07889); assay: Biochemical assay 3: K-Ras^G12C activation assay by hSOS1 (HTRF); details: no GTP; for IC50: read-out: Assay 3 (KRAS-Activation by SOS no GTP) activity expressed as IC50; for inhibition at 20 µM: read-out: Assay 3 (KRAS-Activation by SOS no GTP) activity expressed as % inhibition at 20 μM
[2] = molecular target: K-Ras^G12C : hSOS1 interaction (Homo sapiens, UniProt Q07889); assay: Biochemical assay 1: K-Ras^G12C interaction assay with hSOS1 (HTRF); assay type: binding; details: read-out: Assay 1 (KRAS-SOS Interaction) activity expressed as IC50

| SMILES | IC50 [1] [µM] | IC50 [2] [µM] | inhibition at 20 µM [1] [%] |
| --- | --- | --- | --- |
| COc1cc2nc(C)nc(NC(C)c3ccc(-c4cnc5n4CCC5)s3)c2cc1OC (single isomer, unassigned; enantiomer 1) [Example 328, N-{1-[5-(6,7-dihydro-5H-pyrrolo[1,2-a]imidazol-3-yl)thiophen-2-yl]ethyl}-6,7-dimethoxy-2-methylquinazolin-4-amine, Enantiomer 1] | 0.669 | 0.142 |  |
| COc1cc2nc(C)nc(NC(C)c3ccc(-c4cnc5n4CCC5)s3)c2cc1OC (single isomer, unassigned; enantiomer 2) [Example 329, N-{1-[5-(6,7-dihydro-5H-pyrrolo[1,2-a]imidazol-3-yl)thiophen-2-yl]ethyl}-6,7-dimethoxy-2-methylquinazolin-4-amine, Enantiomer 2] | 10.6 | 2.41 |  |
| COc1cc2nc(C)nc(NC(C)c3ccc(-c4ccc(F)cc4CNC(=O)[C@H]4CCCN4)s3)c2cc1OC (stereo in doubt) [Example 316, N-[2-(5-{1-[(6,7-dimethoxy-2-methylquinazolin-4-yl)amino]ethyl}thiophen-2-yl)-5-fluorobenzyl]-prolinamide] | 0.308 | 0.271 |  |
| COc1cc2nc(C)nc(NC(C)c3cccc4scnc34)c2cc1OC (stereo not drawn) [Example 14, N-[1-(1,3-benzothiazol-4-yl)ethyl]-6,7-dimethoxy-2-methylquinazolin-4-amine] | 1.83 | 0.666 |  |
| COc1cc2nc(C)nc(NC(C)c3cccc4ccsc34)c2cc1OC (stereo not drawn) [Example 15, N-[1-(1-benzothiophen-7-yl)ethyl]-6,7-dimethoxy-2-methylquinazolin-4-amine] | 0.324 | 0.126 |  |
| COc1cc2nc(C)nc(NC(C)c3cc(C)cc4[nH]ncc34)c2cc1OC (stereo not drawn) [Example 16, 6,7-dimethoxy-2-methyl-N-[1-(6-methyl-1H-indazol-4-yl)ethyl]quinazolin-4-amine] | 8.17 | 3.25 |  |
| COc1cc2nc(C)nc(NC(C)c3cccc4c3cnn4C)c2cc1OC (stereo not drawn) [Example 17, 6,7-dimethoxy-2-methyl-N-[1-(1-methyl-1H-indazol-4-yl)ethyl]quinazolin-4-amine] | 0.712 | 0.27 |  |
| COc1cc2nc(C)nc(NC(C)c3c(F)ccc4[nH]ncc34)c2cc1OC (stereo not drawn) [Example 18, N-[1-(5-fluoro-1H-indazol-4-yl)ethyl]-6,7-dimethoxy-2-methylquinazolin-4-amine] | 10.5 | 6.5 |  |
| COc1cc2nc(C)nc(NC(C)c3ccc4c(c3)OCCO4)c2cc1OC (stereo not drawn) [Example 19, N-[1-(2,3-dihydro-1,4-benzodioxin-6-yl)ethyl]-6,7-dimethoxy-2-methylquinazolin-4-amine] |  | 7.78 | 44 |
| COc1cc2nc(C)nc(NC(C)c3cc4ccccc4o3)c2cc1OC (stereo not drawn) [Example 20, N-[1-(1-benzofuran-2-yl)ethyl]-6,7-dimethoxy-2-methylquinazolin-4-amine] |  | 8.42 | 41 |
| COc1cc2nc(C)nc(NC(C)c3cccc(OC)c3OC)c2cc1OC (stereo not drawn) [Example 21, N-[1-(2,3-dimethoxyphenyl)ethyl]-6,7-dimethoxy-2-methylquinazolin-4-amine] | 11.1 | 3.16 |  |
| COc1cc2nc(C)nc(N[C@H](C)c3cccc(-c4ccccc4CN)c3)c2cc1OC [Example 258, N-{(1R)-1-[2′-(aminomethyl)biphenyl-3-yl]ethyl}-6,7-dimethoxy-2-methylquinazolin-4-amine] | 0.245 | 0.204 |  |
| COc1cc2nc(C)nc(NC(C)c3csc(-c4ccccc4CN)c3)c2cc1OC (stereo not drawn) [Example 259, N-[1-{5-[2-(aminomethyl)phenyl]thiophen-3-yl}ethyl]-6,7-dimethoxy-2-methylquinazolin-4-amine] | 0.65 | 0.402 |  |
| COc1cc2nc(C)nc(N[C@H](C)c3cccc(CN)c3)c2cc1OC [Example 260, N-{(1R)-1-[3-(aminomethyl)phenyl]ethyl}-6,7-dimethoxy-2-methylquinazolin-4-amine] | 5.68 | 4.88 |  |
| COc1cc2nc(C)nc(N[C@H](C)c3cccc(-c4cnc5n4CCC5)c3)c2cc1OC [Example 261, N-{(1R)-1-[3-(6,7-dihydro-5H-pyrrolo[1,2-a]imidazol-3-yl)phenyl]ethyl}-6,7-dimethoxy-2-methylquinazolin-4-amine] | 1.1 | 0.839 |  |
| COc1cc2nc(C)nc(NC(C)c3ccc(-c4ccccc4CN(C)C)s3)c2cc1OC (stereo not drawn) [Example 262, N-[1-(5-{2-[(dimethylamino)methyl]phenyl}thiophen-2-yl)ethyl]-6,7-dimethoxy-2-methylquinazolin-4-amine] | 0.0511 | 0.0403 |  |
| CNCc1ccccc1-c1cc(C(C)Nc2nc(C)nc3cc(OC)c(OC)cc23)cs1 (stereo not drawn) [Example 263, 6,7-dimethoxy-2-methyl-N-[1-(5-{2-[(methylamino)methyl]phenyl}thiophen-3-yl)ethyl]quinazolin-4-amine] | 0.324 | 0.237 |  |

| SMILES | IC50 [1] [µM] | IC50 [2] [µM] | inhibition at 20 µM [1] [%] |
| --- | --- | --- | --- |
| COc1cc2nc(C)nc(NC(C)c3cc(Br)cs3)c2cc1OC (stereo not drawn) [Example 264, N-[1-(4-bromothiophen-2-yl)ethyl]-6,7-dimethoxy-2-methylquinazolin-4-amine] | 4.61 | 5.94 |  |
| COc1cc2nc(C)nc(NC(C)c3ccc(-c4cccc(CN)c4)s3)c2cc1OC (stereo not drawn) [Example 265, N-[1-{5-[3-(aminomethyl)phenyl]thiophen-2-yl}ethyl]-6,7-dimethoxy-2-methylquinazolin-4-amine] | 1.11 | 2.77 |  |
| COc1cc2nc(C)nc(NC(C)c3ccc(-c4ccc(CN)cc4)s3)c2cc1OC (stereo not drawn) [Example 266, N-[1-{5-[4-(aminomethyl)phenyl]thiophen-2-yl}ethyl]-6,7-dimethoxy-2-methylquinazolin-4-amine] | 3.74 | 3.61 |  |
| COc1cc2nc(C)nc(NC(C)c3cc(-c4ccn(CCN5CCCC5)n4)cs3)c2cc1OC (stereo not drawn) [Example 267, 6,7-dimethoxy-2-methyl-N-[1-(4-{1-[2-(pyrrolidin-1-yl)ethyl]-1H-pyrazol-3-yl}thiophen-2-yl)ethyl]quinazolin-4-amine] | 1.78 | 3.39 |  |
| CNCc1ccccc1-c1cccc([C@@H](C)Nc2nc(C)nc3cc(OC)c(OC)cc23)c1 [Example 268, 6,7-dimethoxy-2-methyl-N-[(1R)-1-{2′-[(methylamino)methyl]biphenyl-3-yl}ethyl]quinazolin-4-amine] | 0.189 | 0.166 |  |
| COc1cc2nc(C)nc(NC(C)c3cc(-c4ccc(F)cc4CN)cs3)c2cc1OC (stereo not drawn) [Example 269, N-[1-{4-[2-(aminomethyl)-4-fluorophenyl]thiophen-2-yl}ethyl]-6,7-dimethoxy-2-methylquinazolin-4-amine] | 0.135 | 0.162 |  |
| COc1cc2nc(C)nc(NC(C)c3cc(-c4ccccc4CN)cs3)c2cc1OC (stereo not drawn) [Example 270, N-[1-{4-[2-(aminomethyl)phenyl]thiophen-2-yl}ethyl]-6,7-dimethoxy-2-methylquinazolin-4-amine] | 0.098 | 0.0914 |  |
| COc1cc2nc(C)nc(NC(C)c3cc(-c4cnc5n4CCC5)cs3)c2cc1OC (stereo not drawn) [Example 272, N-{1-[4-(6,7-dihydro-5H-pyrrolo[1,2-a]imidazol-3-yl)thiophen-2-yl]ethyl}-6,7-dimethoxy-2-methylquinazolin-4-amine] | 2.5 | 1.82 |  |
| COc1cc2nc(C)nc(NC(C)c3cc(-c4ccn(CCO)n4)cs3)c2cc1OC (stereo not drawn) [Example 273, 2-[3-(5-{1-[(6,7-dimethoxy-2-methylquinazolin-4-yl)amino]ethyl}thiophen-3-yl)-1H-pyrazol-1-yl]ethanol] | 3.63 | 2.32 |  |
| COc1cc2nc(C)nc(N[C@H](C)c3cccc(-c4ccc(F)cc4CN)c3)c2cc1OC [Example 274, N-{(1R)-1-[2′-(aminomethyl)-4′-fluorobiphenyl-3-yl]ethyl}-6,7-dimethoxy-2-methylquinazolin-4-amine] | 0.214 | 0.13 |  |
| COc1cc2nc(C)nc(NC(C)c3ccc(-c4ccc(CN)o4)s3)c2cc1OC (stereo not drawn) [Example 275, N-[1-{5-[5-(aminomethyl)furan-2-yl]thiophen-2-yl}ethyl]-6,7-dimethoxy-2-methylquinazolin-4-amine] | 6.37 | 2.8 |  |
| COc1cc2nc(C)nc(NC(C)c3ccc(-c4ccc(CN)s4)s3)c2cc1OC (stereo not drawn) [Example 276, N-{1-[5′-(aminomethyl)-2,2′-bithiophen-5-yl]ethyl}-6,7-dimethoxy-2-methylquinazolin-4-amine] | 2.16 | 1.41 |  |
| COc1cc2nc(C)nc(NC(C)c3ccc(-c4ccccc4CNCC(=O)c4c[nH]c5ccccc45)s3)c2cc1OC (stereo not drawn) [Example 277, 2-{[2-(5-{1-[(6,7-dimethoxy-2-methylquinazolin-4-yl)amino]ethyl}thiophen-2-yl)benzyl]amino}-1-(1H-indol-3-yl)ethanone] | 0.263 | 0.214 |  |
| COc1cc2nc(C)nc(NC(C)c3ccc(-c4cccc5sc(C(N)=O)c(N)c45)s3)c2cc1OC (stereo not drawn) [Example 278, 3-amino-4-(5-{1-[(6,7-dimethoxy-2-methylquinazolin-4-yl)amino]ethyl}thiophen-2-yl)-1-benzothiophene-2-carboxamide] |  | 12.5 | 43 |
| COC(=O)CNCc1ccccc1-c1ccc(C(C)Nc2nc(C)nc3cc(OC)c(OC)cc23)s1 (stereo not drawn) [Example 281, methyl N-[2-(5-{1-[(6,7-dimethoxy-2-methylquinazolin-4-yl)amino]ethyl}thiophen-2-yl)benzyl]glycinate] | 0.367 | 0.559 |  |
| COc1cc2nc(C)nc(NC(C)c3ccc(-c4ccccc4CNCC(=O)N4CCOCC4)s3)c2cc1OC (stereo not drawn) [Example 285, 2-{[2-(5-{1-[(6,7-dimethoxy-2-methylquinazolin-4-yl)amino]ethyl}thiophen-2-yl)benzyl]amino}-1-(morpholin-4-yl)ethanone] | 0.161 | 0.203 |  |

— patent US20240083857A1, “2-Methyl-Quinazolines” (Bayer Pharma Aktiengesellschaft, priority 2017, published 2024)
